Where two headings read alike, the source gives them in different places. Square brackets hold non-standard residues; d marks the D form. Ends that are not written are not given here. Peptide text beside a SMILES is read from it. Nspe(4-Br) = C[C@H](NCC(=O)O)c1ccc(Br)cc1; N(tridecyl)Gly = CCCCCCCCCCCCCNCC(=O)O; Nspe = C[C@H](NCC(=O)O)c1ccccc1; Nlys = NCCCCNCC(=O)O
Columns and labels:
MBL-producing bacteria = test: Geometric mean MIC, therapeutic index and selectivity ratio, MBL-producing bacteria; assay type: cell-based
Description: (§1) Briefly, bacteria were suspended in cation-adjusted Mueller–Hinton broth (CAMHB; Oxoid, UK) for antibiotics, or MHB (Oxoid, UK) for peptidomimetics to obtain 5 × 10^5 colony forming unit (CFU) ml^−1. […] Positive controls contained only microbes, and blanks contained only media. Microbial suspensions (100 µl) were added to wells, plates wrapped, and incubated at 37°C, 120 rpm for 16–20 h. After incubation, suspensions were removed, log10 diluted, and plated on Trypticase Soya Agar with phosphatidylcholine and Tween 80 to determine minimum bactericidal or fungicidal concentration (MBC or MFC). […] Geometric mean MIC of the peptoids were calculated to evaluate the broad overview of antimicrobial activity across the pathogens.
The test was performed as per the manufacturer’s instructions. Briefly, the strips were applied to a lawn culture of bacteria maintained at 1.5 × 10^8 CFU ml^−1 on Mueller–Hinton agar (Oxoid, UK) and incubated for 20 h at 37°C.
(§2) The therapeutic indices (TIs) of the compounds were calculated with the use of following formula: […]

Enterobacteriaceae = test: Geometric mean MIC, therapeutic index and selectivity ratio, Enterobacteriaceae; assay type: cell-based; conditions: Enterobacteriaceae (E. coli, K. pneumoniae, and E. aerogenes)
Description: as §1, §2

[1] = system: ESKAPEE pathogens (all bacteria); test: Geometric mean MIC, therapeutic index and selectivity ratio, all bacteria; assay type: cell-based; conditions: for Geometric mean MIC, all bacteria: across the 23 ESKAPEE strains
Description: as §1, §2

[2] = system: MBL phenotypes of A. baumannii; conditions: MBL phenotypes of A. baumannii
Description: Briefly, bacteria were suspended in cation-adjusted Mueller–Hinton broth (CAMHB; Oxoid, UK) for antibiotics, or MHB (Oxoid, UK) for peptidomimetics to obtain 5 × 10^5 colony forming unit (CFU) ml^−1. […] Positive controls contained only microbes, and blanks contained only media. Microbial suspensions (100 µl) were added to wells, plates wrapped, and incubated at 37°C, 120 rpm for 16–20 h. […] Geometric mean MIC of the peptoids were calculated to evaluate the broad overview of antimicrobial activity across the pathogens.

[3] = system: horse red blood cells (RBCs); test: Haemolysis assay; assay type: cell-based
Description: The haemolytic activity of the peptidomimetics was performed to determine mammalian cell safety. This assay used horse red blood cells (RBCs) (Sigma–Aldrich, USA) as described previously (Willcox et al. [2008], Chongsiriwatana et al. [2017], Yasir et al. [2019b]). RBCs were washed three times with PBS at 470 g for 5 min. Peptoids (0.5–250 μg ml^−1) were prepared in PBS and added to washed RBCs, then incubated at 37°C for 4 h. After incubation, cells were centrifuged at 1057 g for 10 min, and the supernatant’s OD at 540 nm was measured for lysis. PBS-only RBCs served as the negative control (no haemolysis), and Milli-Q water-treated RBCs as the positive control (100% lysis). Percent haemolysis was calculated as: (ODT − ODNC)/(ODPC − ODNC) × 100, where ODT, ODNC, and ODPC are the absorbances of the test, negative, and positive controls, respectively. This experiment was performed in triplicate.

C. auris strains = conditions: two C. auris strains
Description: as §1, §2

[4] = CBS 10 913, RPMI 1640 with MOPS, 5 × 10^3 CFU ml^−1, ≥90% reduction (≥50% for fluconazole)
[5] = horse RBCs in PBS, 37°C, 4 h, value in brackets
[6] = horse RBCs in PBS, 37°C, 4 h, OD 540 nm, triplicate, best fit curve

| Compound | Geometric mean MICMBL (MBL-producing bacteria) | MIC against C. auris (C. auris CBS10913; [4]) | MIC against C. auris (C. auris CBS10913; CBS10913) | Geometric mean MICE (Enterobacteriaceae) | Geometric mean MIC, all bacteria [1] | Geometric mean MIC, all bacteria ([1]; value in brackets) | MIC [2] | HD10 (10% haemolytic dose) [3, 5] | HD50 (50% haemolytic dose) [3, 5] | HD10 (10% haemolytic dose) ([3]; red cells of horse, 4 h) | HD50 (50% haemolytic dose) ([3]; red cells of horse, 4 h) | Geometric mean MICCA (C. auris strains) | HD10 (10% haemolytic dose) [3] | HD50 (50% haemolytic dose) [3] | MIC against C. auris (C. auris CBS10913; CBS 10 913, value in brackets) | HD10 (10% haemolytic dose) [3, 6] | HD50 (50% haemolytic dose) [3, 6] | Fold increase in geometric mean MIC relative to TM4 ([1]; bacteria) | Fold increase in geometric mean MIC relative to TM8 ([1]; bacteria) |
| --- | --- | --- | --- | --- | --- | --- | --- | --- | --- | --- | --- | --- | --- | --- | --- | --- | --- | --- | --- |
| C[C@@H](c1ccccc1)N(CC(N)=O)C(=O)CN(C(=O)CN(CCCCN)C(=O)CN(C(=O)CN(C(=O)CN(CCCCN)C(=O)CN(C(=O)CN(C(=O)CN(CCCCN)C(=O)CN(C(=O)CN(C(=O)CNCCCCN)[C@@H](C)c1ccccc1)[C@@H](C)c1ccccc1)[C@@H](C)c1ccccc1)[C@@H](C)c1ccccc1)[C@@H](C)c1ccccc1)[C@@H](C)c1ccccc1)[C@@H](C)c1ccccc1 [TM1] (H-[Nlys][Nspe][Nspe][Nlys][Nspe][Nspe][Nlys][Nspe][Nspe][Nlys][Nspe][Nspe]-NH2) | 11.0 µg/mL | 15.6 µg/mL | 8.6 µM | 23.7 µg/mL | 13.0 µg/mL | 7.2 µM | ≤ 7.8 µg/mL | 4.4 µmol/L | 24.6 µmol/L | 8 µg/mL | 44.8 µg/mL | 7.8 µg/mL |  |  |  |  |  |  |  |
| C[C@@H](c1ccc(Br)cc1)N(CC(N)=O)C(=O)CN(C(=O)CN(CCCCN)C(=O)CN(C(=O)CN(C(=O)CNCCCCN)[C@@H](C)c1ccccc1)[C@@H](C)c1ccc(Br)cc1)[C@@H](C)c1ccccc1 [TM2] (H-[Nlys][Nspe][Nspe(4-Br)][Nlys][Nspe][Nspe(4-Br)]-NH2) | 28.7 µg/mL | 31.25 µg/mL | 29 µM | 58.3 µg/mL | 26.1 µg/mL | 24.2 µM |  |  |  | 20 µg/mL | 64 µg/mL | 11.1 µg/mL | 18.6 µmol/L | 59.5 µmol/L |  |  |  |  |  |
| C[C@@H](c1ccccc1)N(CC(N)=O)C(=O)CN(CCCCN)C(=O)CN(C(=O)CN(C(=O)CN(CCCCN)C(=O)CN(C(=O)CN(C(=O)CN(CCCCN)C(=O)CN(C(=O)CN(C(=O)CNCCCCN)[C@@H](C)c1ccccc1)[C@@H](C)c1ccccc1)[C@@H](C)c1ccccc1)[C@@H](C)c1ccccc1)[C@@H](C)c1ccccc1)[C@@H](C)c1ccccc1 [TM6] (H-[Nlys][Nspe][Nspe][Nlys][Nspe][Nspe][Nlys][Nspe][Nspe][Nlys][Nspe]-NH2) | 18.6 µg/mL | 31.25 µg/mL |  | 29.1 µg/mL | 17.6 µg/mL | 10.6 µM |  | 26.1 µmol/L | > 154.4 µmol/L |  |  | 7.9 µg/mL |  |  | 18.8 µM | 43.2 µg/mL | > 256 µg/mL |  |  |
| C[C@@H](c1ccc(Br)cc1)N(CC(=O)N(CCCCN)CC(=O)N(CC(=O)N(CC(=O)N(CCCCN)CC(N)=O)[C@@H](C)c1ccc(Br)cc1)[C@@H](C)c1ccccc1)C(=O)CN(C(=O)CNCCCCN)[C@@H](C)c1ccccc1 [TM12] (H-[Nlys][Nspe][Nspe(4-Br)][Nlys][Nspe][Nspe(4-Br)][Nlys]-NH2) | 62.5 µg/mL | 62.5 µg/mL | 51.9 µM | 47.4 µg/mL | 31.2 µg/mL | 26.0 µM |  |  |  | 80 µg/mL | > 256 µg/mL | 15.6 µg/mL | 66.4 µmol/L | 212.6 µmol/L |  |  |  | 3 fold |  |
| C[C@@H](c1ccc(Br)cc1)N(CC(=O)N(CCCCN)CC(=O)N(CC(=O)N(CC(=O)N(CCCCN)CC(N)=O)[C@@H](C)c1ccc(Br)cc1)[C@@H](C)c1ccc(Br)cc1)C(=O)CN(C(=O)CNCCCCN)[C@@H](C)c1ccc(Br)cc1 [TM14] (H-[Nlys][Nspe(4-Br)][Nspe(4-Br)][Nlys][Nspe(4-Br)][Nspe(4-Br)][Nlys]-NH2) | 24.1 µg/mL | 15.6 µg/mL | 11.5 µM | 31.3 µg/mL | 19.9 µg/mL | 14.6 µM |  |  |  | 9.6 µg/mL | 24 µg/mL | 7.8 µg/mL | 7.0 µmol/L | 17.6 µmol/L |  |  |  |  |  |
| CCCCCCCCCCCCCNCC(=O)N(CCCCN)CC(=O)N(CC(=O)N(CC(=O)N(CCCCN)CC(=O)N(CCCCN)CC(N)=O)[C@@H](C)c1ccccc1)[C@@H](C)c1ccccc1 [TM15] (H-[N(tridecyl)Gly][Nlys][Nspe][Nspe][Nlys][Nlys]-NH2) | 52.6 µg/mL | 250 µg/mL | 259.6 µM | 50.8 µg/mL | 32.2 µg/mL | 33.4 µM |  |  |  | 23.6 µg/mL | 86.4 µg/mL |  | 24.5 µmol/L | 89.7 µmol/L |  |  |  |  | 4 fold |
| KNKRKRRRRRRGGRRRR [Mel4] | 162.1 µg/mL | 125 µg/mL |  | 164.9 µg/mL | 149.8 µg/mL | 63.8 µM |  | > 109 µmol/L | > 109 µmol/L |  |  | 22.1 µg/mL |  |  |  | > 256 µg/mL | > 256 µg/mL |  |  |
| TLISWIKNKRKQRPRVSRRRRRRGGRRRR [Melimine] | 162.1 µg/mL | 125 µg/mL |  | 189.5 µg/mL | 132.8 µg/mL | 35.1 µM |  | > 67.6 µmol/L | > 67.7 µmol/L |  |  | 22.1 µg/mL |  |  | 33.0 µM | > 256 µg/mL | > 256 µg/mL |  |  |
